“Also recorded” adds a separate entry of the source.
System: target microorganisms
Assay: Screen of synthesized peptides for binding to target microorganisms (targeting peptides, Tables 2 and 3)
Conditions: microorganism(s) the targeting peptide was identified as binding to (Table 3)
Method: Once noted, these peptides were batch synthesized on a multiplex peptide synthesizer, yielding 5-10 mg of each peptide that could readily be screened for biological activity (e.g., binding activity and/or antimicrobial activity.
Other suitable targeting peptides include the peptides that have been identified as binding to particular target organisms as shown in Table 3 and/or Table 4.

Row | Substance | Target(s)
1 | 1T-27 (ALFVSLEQFLVVVAKSVFALCHSGTLS; synthetic novel tartgeting peptide IT-27) | S. mutans; also recorded: S. aureus; also recorded: S. epidermidis; also recorded: C. jeikeium; also recorded: C. xerosis; also recorded: C. striatum; also recorded: P. aeruginosa
2 | 1T-68 (GGTKEIVYQRG; synthetic novel tartgeting peptide IT-68) | S. mutans; also recorded: S. aureus; also recorded: C. jeikeium; also recorded: C. xerosis; also recorded: C. striatum; also recorded: P. aeruginosa
3 | 1T-24 (EEAEEKLAEVSQAVKRLVR; synthetic novel tartgeting peptide IT-24) | P. aeruginosa
4 | 1T-170 (AYGKVFSMDIMLSENDKLIVLRISHHSAWH; synthetic novel tartgeting peptide IT-170) | P. gingivalis
5 | 1T-98 (VRSAKAVKALTAAGYTGELVNVSGGMKAWLGQ; synthetic novel tartgeting peptide IT-98) | A. naeslundii, F. nucleatum,; also recorded: P. gingivalis; also recorded: S. epidermidis,; also recorded: S. gordonii, S. mitis, S. mutans,; also recorded: S. oralis, S. salivarious,; also recorded: S. sanguinis
6 | 1T-167 (SRMSEHSPAGLVFEVGPMDKGSFIILDSYHPTVKK; synthetic novel tartgeting peptide IT-167) | A. naeslundii, F. nucleatum,; also recorded: P. gingivalis; also recorded: S. epidermidis,; also recorded: S. gordonii, S. mitis, S. mutans,; also recorded: S. oralis, S. salivarious,; also recorded: S. sanguinis
7 | 1T-16 (IDMR; synthetic novel tartgeting peptide IT-16) | P. aeruginosa
8 | 1T-102 (WKRLWPARILAGHSRRRMRWMVVWRYFAAT; synthetic novel tartgeting peptide IT-102) | A. naeslundii, F. nucleatum,; also recorded: P. gingivalis; also recorded: S. epidermidis,; also recorded: S. gordonii, S. mitis, S. mutans,; also recorded: S. oralis, S. salivarious,; also recorded: S. sanguinis
9 | 1T-106 (DALRRSRSQGRRHR; synthetic novel tartgeting peptide IT-106) | S. gordonii, S. mitis, S. mutans,; also recorded: S. oralis, S. salivarious
10 | 1T-10 (SPAGLPGDGDEA; synthetic novel tartgeting peptide IT-10) | M. xanthus
11 | 1T-60 (YLTSLGLDAAEQAQGLLTILKG; synthetic novel tartgeting peptide IT-60) | S. aureus; also recorded: S. epidermidis; also recorded: C. jeikeium; also recorded: C. striatum; also recorded: P. aeruginosa
12 | 1T-128 (SGSAIRMLEIATKMLKR; synthetic novel tartgeting peptide IT-128) | A. naeslundii, P. gingivalis; also recorded: S. epidermidis,; also recorded: S. gordonii, S. mitis, S. mutans,; also recorded: S. oralis, S. salivarious,; also recorded: S. sanguinis
13 | 1T-112 (SDNDGKLILGTSQ; synthetic novel tartgeting peptide IT-112) | S. gordonii
14 | 1T-114 (RQAPGPGLVTITAACSAPGSRSR; synthetic novel tartgeting peptide IT-114) | A. naeslundii, P. gingivalis; also recorded: S. epidermidis,; also recorded: S. gordonii, S. mitis, S. mutans,; also recorded: S. oralis, S. sanguinis
15 | 1T-54 (RWVSCNPSWRIQ; synthetic novel tartgeting peptide IT-54) | S. epidermidis; also recorded: C. xerosis; also recorded: C. striatum; also recorded: P. aeruginosa
16 | 1T-1 (YVNYNQSFNSGW; synthetic novel tartgeting peptide IT-1) | S. mutans

Row | Substance | Target(s)
17 | 1T-9 (WAWAESPRCVSTRSNIHALAFRVEVAALT; synthetic novel tartgeting peptide IT-9) | M. xanthus
18 | 1T-100 (LDPLEPRIAPPGDRSHQGAPACHRDPLRGRSARDAER; synthetic novel tartgeting peptide IT-100) | S. gordonii, S. mitis, S. mutans
19 | 1T-2 (NIFEYFLE; synthetic novel tartgeting peptide IT-2) | S. gordonii; also recorded: S. mitis; also recorded: S. oralis; also recorded: V. atypica; also recorded: Lactobacillus casei; also recorded: Saliva-derived biofilms; also recorded: S. mutans; also recorded: S. sanguinis
20 | 1T-109 (VTTNVRQGAGS; synthetic novel tartgeting peptide IT-109) | A. naeslundiiS. epidermidis,; also recorded: S. gordonii,; also recorded: S. mitis, S. mutans, S. oralis,; also recorded: S. salivarious, S. sanguinis
21 | 1T-103 (AQFYEAIITGYALGAGQRIGQL; synthetic novel tartgeting peptide IT-103) | A. naeslundii, F. nucleatum,; also recorded: P. gingivalis; also recorded: S. epidermidis,; also recorded: S. gordonii, S. mitis, S. mutans,; also recorded: S. oralis, S. sanguinis
22 | 1T-72 (EPTDGVACKER; synthetic novel tartgeting peptide IT-72) | P. aeruginosa
23 | 1T-64 (QTVHHIHMHVLGQRQMHWPPG; synthetic novel tartgeting peptide IT-64) | S. aureus; also recorded: S. epidermidis; also recorded: C. jeikeium; also recorded: C. xerosis; also recorded: C. striatum; also recorded: P. aeruginosa
24 | 1T-47 (VIKISVPGQVQMLIP; synthetic novel tartgeting peptide IT-47) | S. mutans; also recorded: S. epidermidis; also recorded: P. aeruginosa
25 | 1T-99 (MKAWLGQ; synthetic novel tartgeting peptide IT-99) | S. gordonii, S. mitis, S. mutans,; also recorded: S. oralis, S. sanguinis
26 | 1T-101 (RLRVGRATDLPLTSFAVGVVRNLPDAPAH; synthetic novel tartgeting peptide IT-101) | A. naeslundii, P. gingivalis; also recorded: S. epidermidis,; also recorded: S. gordonii, S. mitis, S. mutans,; also recorded: S. oralis, S. sanguinis
27 | 1T-165 (CYDSFDFSIFVTFANRMKLSVGS; synthetic novel tartgeting peptide IT-165) | A. naeslundii, F. nucleatum,; also recorded: P. gingivalis; also recorded: S. epidermidis,; also recorded: S. gordonii, S. mitis, S. mutans,; also recorded: S. oralis, S. salivarious,; also recorded: S. sanguinis
28 | 1T-39 (FGFCVWMYQLLAGPPGPPA; synthetic novel tartgeting peptide IT-39) | S. mutans; also recorded: P. aeruginosa
29 | 1T-144 (IIELHPKSWTQDWRCSFL; synthetic novel tartgeting peptide IT-144) | A. naeslundii, F. nucleatum,; also recorded: P. gingivalis,; also recorded: T. denticolaS. gordonii,; also recorded: S. mitis, S. mutans, S. oralis,; also recorded: S. salivarious, S. sanguinis
30 | 1T-11 (RISE; synthetic novel tartgeting peptide IT-11) | S. mutans; also recorded: S. epidermidis; also recorded: P. aeruginosa
31 | 1T-145 (VEAGKRNISLENIEKISKGLGISISELFKYIEEGEDKIG; synthetic novel tartgeting peptide IT-145) | S. mitis, S. mutans, S. oralis
